Test results: patent US9440926B2, “Antiviral compounds and methods” (Biotron Limited, priority 2005, dated 2016)

Legend:
Type in all cases: cell-based
Vpu = target: T1, Vpu (Human immunodeficiency virus type 1 group M subtype B, UniProt P05919); test: Bacterial bioassay, Vpu; settings: mean bacterial bioassay score; Vpu of HIV
T1 construct: expressed in transfected cells
Excerpt: (§1) The bacterial bioassay method used in the present example to test the anti-viral activity of the compounds against different viral targets was described in detail in PCT/2004/000866, incorporated in its entirety herein by reference. Vpu, p7 and M referred to in the table are small membrane proteins encoded by HIV, HCV and Dengue viruses, respectively, which have functional activities supporting viral growth and/or replication.

HCV p7 = target: T2, HCV p7 (Hepatitis C virus genotype 1a, UniProt P27958); test: Bacterial bioassay, HCV p7; set-up: scale not given here; settings: mean bacterial bioassay score; p7 of HCV
T2 construct: expressed in transfected cells
Excerpt: as §1

Den M = target: T3, Den M (Dengue virus type 1, UniProt P33478); test: Bacterial bioassay, Den M; set-up: scale not given here; settings: mean bacterial bioassay score; M protein of Dengue virus
T3 construct: expressed in transfected cells
Excerpt: as §1

T1 sequence (P05919 whole entry): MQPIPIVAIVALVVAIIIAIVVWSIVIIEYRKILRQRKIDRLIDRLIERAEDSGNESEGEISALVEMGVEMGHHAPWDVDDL
T2 sequence (P27958 747-809): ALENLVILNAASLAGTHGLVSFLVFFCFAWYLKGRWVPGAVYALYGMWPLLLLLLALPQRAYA
T3 sequence (P33478 206-280): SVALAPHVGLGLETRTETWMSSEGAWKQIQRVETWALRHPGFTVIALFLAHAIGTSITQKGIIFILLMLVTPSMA

Compound | Average Bacterial Assay Score, Vpu (Vpu) | Average Bacterial Assay Score, HCV p7 (HCV p7) | Average Bacterial Assay Score, Den M (Den M)
N=C(N)NC(=O)C=Cc1cccc(Br)c1 [BIT067, (3-Bromocinnamoyl)guanidine, reference compound] | 2.88 |  | 
N=C(N)NC(=O)C=Cc1cc(Br)ccc1F [BIT124, 5-bromo-2-fluorocinnamoylguanidine, reference compound] |  | 2.25 | 
N=C(N)NC(=O)C=CC=Cc1ccccc1Br [BIT128, 5-(2′-bromophenyl)penta-2,4-dienoylguanidine, reference compound] |  |  | 2.87
N=C(N)NC(=O)C=Cc1ccc(Cl)c(Cl)c1 [BIT300, 3,4-dichlorocinnamoyl guanidine] | 1.52 | 0.67 | 3.40
CC(=O)O.Cn1cc(-c2ccc3cc(C(=O)NC(=N)N)ccc3c2)cn1 [BIT314, (6-(1-methylpryazol-4-yl)-2-napthoyl)guanidinium acetate] | 0.00 | 3.30 | 1.60
COc1ccc(-c2cccc3cc(C(=O)NC(=N)N)ccc23)c(OC)n1 [BIT315, (5-(2,6-dimethoxypyridin-3-yl)-2-napthoyl)guanidine] | 0.20 | 0.30 | 1.00
N=C(N)NC(=O)c1ccc2c(-c3ccccc3Cl)cccc2c1 [BIT316, (5-(2-chlorophenyl)-2-napthoyl)guanidine] | 0.20 | 0.80 | 0.50
CC(=O)Nc1ccc(-c2cccc3cc(C(=O)NC(=N)N)ccc23)cc1 [BIT317, (5-(4-(acetylamino)phenyl)-2-napthoyl)guanidine] | 0.00 | 0.20 | 0.40
CC(=O)Nc1cccc(-c2cccc3cc(C(=O)NC(=N)N)ccc23)c1 [BIT318, (5-(3-(acetylamino)phenyl)-2-napthoyl)guanidine] | 2.00 | 0.30 | 0.35
CS(=O)(=O)Nc1ccc(-c2cccc3cc(C(=O)NC(=N)N)ccc23)cc1 [BIT319, (5-(4-((methylsulphonyl)amino)phenyl)-2-napthoyl)guanidine] | 0.00 | 0.00 | 0.15
